For test [1], the target named is T1, MLLT1 (Homo sapiens, UniProt Q03111).
T1 construct: host or cells: MV4-11
T1 sequence (Q03111 1-559): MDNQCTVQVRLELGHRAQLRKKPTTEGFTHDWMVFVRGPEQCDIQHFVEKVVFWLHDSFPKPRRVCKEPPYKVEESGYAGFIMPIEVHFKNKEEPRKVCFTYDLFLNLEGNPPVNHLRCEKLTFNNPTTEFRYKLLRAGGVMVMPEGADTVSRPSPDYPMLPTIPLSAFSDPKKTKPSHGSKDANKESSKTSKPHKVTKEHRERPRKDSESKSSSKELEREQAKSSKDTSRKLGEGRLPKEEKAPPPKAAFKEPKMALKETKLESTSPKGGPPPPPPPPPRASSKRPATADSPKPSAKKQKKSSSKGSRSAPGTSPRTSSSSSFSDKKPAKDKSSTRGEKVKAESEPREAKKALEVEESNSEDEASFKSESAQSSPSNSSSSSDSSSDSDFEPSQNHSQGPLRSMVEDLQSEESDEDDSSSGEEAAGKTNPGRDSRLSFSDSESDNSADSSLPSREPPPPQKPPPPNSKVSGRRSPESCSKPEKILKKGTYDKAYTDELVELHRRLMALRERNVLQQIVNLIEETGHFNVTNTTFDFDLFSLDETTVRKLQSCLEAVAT
Put plainly: MLLT1 degradation assay in MV4-11 cells (JESS chemiluminescent detection), three concentrations, 24 h. The format is cell-based. The conditions noted are these: with respect to DMSO control. An outline of the steps:
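Read-out is % MLLT1 degradation versus DMSO, from band peak areas on a JESS chemiluminescent system. Cells (MV4-11) were exposed for 24 h at 37° C to three compound levels, 10, 100 and 1000 nM, in 0.1% DMSO.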

In test [2] the test system is MV4-11 cells. Put plainly: MV4-11 cellular proliferative assay, Assay Format B (CTG 2.0, 168 h). The conditions noted are these: Homo sapiens, 168 h (7 days), CTG 2.0, read-out: IC50 (MV4-11 cellular proliferative assay, Assay format B). The format is cell-based. An outline of the steps: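 Viability read by CellTiter-Glo 2.0 luminescence after 7-day (168 h) compound exposure of MV4-11 cells in IMDM/10% FBS. Ten 3-fold concentrations starting at 1 uM or 100 nM, 0.3% final DMSO; curves normalised to DMSO control, four-parameter fit.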

As to `CN1CCC[C@@H]1c1cc2cnc(NC(=O)c3ccc(N4CCC(OC=C=Cc5cccc6c5CN(C5CCC(=O)NC5=O)C6=O)CC4)nc3)cc2[nH]1` (stereo partly drawn) [Example 195, 6-(4-((3-(2-(2,6-dioxopiperidin-3-yl)-1-oxoisoindolin-4-yl)propa-1,2-dien-1-yl)oxy)piperidin-1-yl)-N-(2-((R)-1-methylpyrrolidin-2-yl)-1H-pyrrolo[3,2-c]pyridin-6-yl)nicotinamide], in test [1], the “MLLT1% Degradation @ 0.01 μM” value was “A (Category A: A ≥ 75% degradation)”, the “MLLT1% Degradation @ 0.1 μM” value is on record as “B (Category B: 50% ≤ B < 75% degradation)” and the “MLLT1% Degradation @ 1 μM” value is reported as “A (Category A: A ≥ 75% degradation)”. The IC50 in test [2] was at most 100 nM.

For the compound `CN1CCC[C@@H]1c1cc2cnc(NC(=O)c3cccc(C4CCN(c5cccc6c5C(=O)N(C5CCC(=O)NC5=O)C6=O)CC4)c3)cc2[nH]1` (stereo partly drawn) [Example 14, 3-(1-(2-(2,6-dioxopiperidin-3-yl)-1,3-dioxoisoindolin-4-yl)piperidin-4-yl)-N-(2-((R)-1-methylpyrrolidin-2-yl)-1H-pyrrolo[3,2-c]pyridin-6-yl)benzamide], in test [1], the “MLLT1% Degradation @ 0.01 μM” value was “B (Category B: 50% ≤ B < 75% degradation)”, the “MLLT1% Degradation @ 0.1 μM” value was “A (Category A: A ≥ 75% degradation)” and the “MLLT1% Degradation @ 1 μM” value is “A (Category A: A ≥ 75% degradation)”. Besides, the IC50 in test [2] was at most 100 nM.

As for `CN1CCC[C@@H]1c1cc2cnc(NC(=O)c3cccc(CCCCC#Cc4cccc5c4CN(C4CCC(=O)NC4=O)C5=O)c3)cc2[nH]1` (stereo partly drawn) [Example 96, 3-(6-(2-(2,6-dioxopiperidin-3-yl)-1-oxoisoindolin-4-yl)hex-5-yn-1-yl)-N-(2-((R)-1-methylpyrrolidin-2-yl)-1H-pyrrolo[3,2-c]pyridin-6-yl)benzamide], in test [1], the “MLLT1% Degradation @ 0.01 μM” value is recorded as “A (Category A: A ≥ 75% degradation)”, the “MLLT1% Degradation @ 0.1 μM” value is “A (Category A: A ≥ 75% degradation)” and the “MLLT1% Degradation @ 1 μM” value was “A (Category A: A ≥ 75% degradation)”. The IC50 in test [2] is at most 100 nM.

In the case of `CN1CCC[C@@H]1c1cc2cnc(NC(=O)c3ccc(CN4CCN(CC5CCN(c6cccc7c6CN(C6CCC(=O)NC6=O)C7=O)CC5)CC4)cc3)cc2[nH]1` (stereo partly drawn) [Example 194, 4-((4-((1-(2-(2,6-dioxopiperidin-3-yl)-1-oxoisoindolin-4-yl)piperidin-4-yl)methyl)piperazin-1-yl)methyl)-N-(2-((R)-1-methylpyrrolidin-2-yl)-1H-pyrrolo[3,2-c]pyridin-6-yl)benzamide], in test [1], the “MLLT1% Degradation @ 0.01 μM” value is “B (Category B: 50% ≤ B < 75% degradation)”, the “MLLT1% Degradation @ 0.1 μM” value is on record as “A (Category A: A ≥ 75% degradation)” and the “MLLT1% Degradation @ 1 μM” value was “A (Category A: A ≥ 75% degradation)”. Also, in test [2], the IC50 is at most 100 nM.

In the case of `CN1CCC[C@@H]1c1cc2cnc(NC(=O)c3ccc(N4CCC(C#Cc5cccc6c5CN(C5CCC(=O)NC5=O)C6=O)CC4)nc3)cc2[nH]1` (stereo partly drawn) [Example 17, 6-(4-((2-(2,6-dioxopiperidin-3-yl)-1-oxoisoindolin-4-yl)ethynyl)piperidin-1-yl)-N-(2-((R)-1-methylpyrrolidin-2-yl)-1H-pyrrolo[3,2-c]pyridin-6-yl)nicotinamide], in test [1], the “MLLT1% Degradation @ 0.01 μM” value is on record as “A (Category A: A ≥ 75% degradation)”, the “MLLT1% Degradation @ 0.1 μM” value is on record as “A (Category A: A ≥ 75% degradation)” and the “MLLT1% Degradation @ 1 μM” value is recorded as “A (Category A: A ≥ 75% degradation)”. For the same compound, the IC50 in test [2] is at most 100 nM.

In the case of `CN1CCC[C@@H]1c1cc2cnc(NC(=O)c3ccc(N4CCN(C(=O)CC5CCN(c6cccc7c6CN(C6CCC(=O)NC6=O)C7=O)CC5)CC4)cc3)cc2[nH]1` (stereo partly drawn) [Example 88, 4-(4-(2-(1-(2-(2,6-dioxopiperidin-3-yl)-1-oxoisoindolin-4-yl)piperidin-4-yl)acetyl)piperazin-1-yl)-N-(2-((R)-1-methylpyrrolidin-2-yl)-1H-pyrrolo[3,2-c]pyridin-6-yl)benzamide], in test [1], the “MLLT1% Degradation @ 0.01 μM” value was “B (Category B: 50% ≤ B < 75% degradation)”, the “MLLT1% Degradation @ 0.1 μM” value is “A (Category A: A ≥ 75% degradation)” and the “MLLT1% Degradation @ 1 μM” value was “B (Category B: 50% ≤ B < 75% degradation)”. Further, the IC50 in test [2] was at most 100 nM.

On to `[2H]C([2H])([2H])N1CCC[C@@H]1c1cc2cnc(NC(=O)c3ccc(CCCC#Cc4cccc5c4CN(C4CCC(=O)NC4=O)C5=O)cc3)cc2[nH]1` (stereo partly drawn) [Example 111, 4-(5-(2-(2,6-dioxopiperidin-3-yl)-1-oxoisoindolin-4-yl)pent-4-yn-1-yl)-N-(2-((R)-1-(methyl-d3)pyrrolidin-2-yl)-1H-pyrrolo[3,2-c]pyridin-6-yl)benzamide], for which, in test [1], the “MLLT1% Degradation @ 0.01 μM” value is listed as “A (Category A: A ≥ 75% degradation)”, the “MLLT1% Degradation @ 0.1 μM” value is given as “A (Category A: A ≥ 75% degradation)” and the “MLLT1% Degradation @ 1 μM” value is “A (Category A: A ≥ 75% degradation)”. Moreover, in test [2], the half-inhibitory concentration (IC50) is at most 100 nM.

`CN1CCC[C@@H]1c1cc2cnc(NC(=O)c3ccc(OCCC4CCN(c5cccc6c5CN(C5CCC(=O)NC5=O)C6=O)CC4)cc3)cc2[nH]1` (mixture of isomers) [Example 79, 4-(2-(1-(2-(2,6-dioxopiperidin-3-yl)-1-oxoisoindolin-4-yl)piperidin-4-yl)ethoxy)-N-(2-((R)-1-methylpyrrolidin-2-yl)-1H-pyrrolo[3,2-c]pyridin-6-yl)benzamide]: in test [1], the “MLLT1% Degradation @ 0.01 μM” value is listed as “A (Category A: A ≥ 75% degradation)”, the “MLLT1% Degradation @ 0.1 μM” value is listed as “A (Category A: A ≥ 75% degradation)” and the “MLLT1% Degradation @ 1 μM” value was “A (Category A: A ≥ 75% degradation)”. Also, the IC50 in test [2] was at most 100 nM.

As to `CN1CCC[C@@H]1c1cc2cnc(NC(=O)c3ccc(N4CCC(OCc5ccc(-c6cccc7c6CN(C6CCC(=O)NC6=O)C7=O)cc5)CC4)nc3)cc2[nH]1` (stereo partly drawn) [Example 109, 6-(4-((4-(2-(2,6-dioxopiperidin-3-yl)-1-oxoisoindolin-4-yl)benzyl)oxy)piperidin-1-yl)-N-(2-((R)-1-methylpyrrolidin-2-yl)-1H-pyrrolo[3,2-c]pyridin-6-yl)nicotinamide], in test [1], the “MLLT1% Degradation @ 0.01 μM” value is “B (Category B: 50% ≤ B < 75% degradation)”, the “MLLT1% Degradation @ 0.1 μM” value was “A (Category A: A ≥ 75% degradation)” and the “MLLT1% Degradation @ 1 μM” value is recorded as “A (Category A: A ≥ 75% degradation)”. The IC50 in test [2] is at most 100 nM.

Regarding `CN1CCC[C@@H]1c1cc2cnc(NC(=O)c3ccc(-c4cnn(CCOC5CCN(c6cccc(C(=O)N[C@H]7CCC(=O)NC7=O)n6)CC5)c4)cc3)cc2[nH]1` [Example 61, N—((S)-2,6-dioxopiperidin-3-yl)-6-(4-(2-(4-(4-((2-((R)-1-methylpyrrolidin-2-yl)-1H-pyrrolo[3,2-c]pyridin-6-yl)carbamoyl)phenyl)-1H-pyrazol-1-yl)ethoxy)piperidin-1-yl)picolinamide], in test [1], the “MLLT1% Degradation @ 0.01 μM” value is on record as “A (Category A: A ≥ 75% degradation)”, the “MLLT1% Degradation @ 0.1 μM” value is “A (Category A: A ≥ 75% degradation)” and the “MLLT1% Degradation @ 1 μM” value is “B (Category B: 50% ≤ B < 75% degradation)”. The IC50 in test [2] was at most 100 nM.

Regarding `CN1CCC[C@@H]1c1cc2cnc(NC(=O)c3ccc(N4CCN(CC5CCN(c6cccc7c6CN(C6CCC(=O)NC6=O)C7=O)CC5)CC4)cc3)cc2[nH]1` (mixture of isomers) [Example 116, 4-(4-((1-(2-(2,6-dioxopiperidin-3-yl)-1-oxoisoindolin-4-yl)piperidin-4-yl)methyl)piperazin-1-yl)-N-(2-((R)-1-methylpyrrolidin-2-yl)-1H-pyrrolo[3,2-c]pyridin-6-yl)benzamide], in test [1], the “MLLT1% Degradation @ 0.01 μM” value is given as “B (Category B: 50% ≤ B < 75% degradation)”, the “MLLT1% Degradation @ 0.1 μM” value was “A (Category A: A ≥ 75% degradation)” and the “MLLT1% Degradation @ 1 μM” value is reported as “A (Category A: A ≥ 75% degradation)”. For the same compound, the half-maximal inhibitory concentration (IC50) in test [2] was at most 100 nM.

As for `CN1CCC[C@@H]1c1cc2cnc(NC(=O)c3ccc(CCCc4ccc(-c5cccc6c5CN(C5CCC(=O)NC5=O)C6=O)cc4)cc3)cc2[nH]1` (stereo partly drawn) [Example 199, 4-(3-(4-(2-(2,6-dioxopiperidin-3-yl)-1-oxoisoindolin-4-yl)phenyl)propyl)-N-(2-((R)-1-methylpyrrolidin-2-yl)-1H-pyrrolo[3,2-c]pyridin-6-yl)benzamide], in test [1], the “MLLT1% Degradation @ 0.01 μM” value is on record as “A (Category A: A ≥ 75% degradation)”, the “MLLT1% Degradation @ 0.1 μM” value is given as “A (Category A: A ≥ 75% degradation)” and the “MLLT1% Degradation @ 1 μM” value is given as “A (Category A: A ≥ 75% degradation)”. In addition, the IC50 in test [2] was at most 100 nM.

For orientation: IC50 means the concentration that gives 50% inhibition.

These data come from US20260191968A1, “PROTAC DEGRADERS OF MLLT1 AND/OR MLLT3” (DARK BLUE THERAPEUTICS LTD, priority 2024, published 2026).
